Experimental data as given in patent US11919858B2, “Aminonapthoquinone compounds and pharmaceutical composition for blocking ubiquitination-proteasome system in diseases” (Calgent Biotechnology Co., Ltd., priority 2015, dated 2024).

How the values were obtained:
[1] = test system: human RPMI8226 multiple myeloma; assay: Human RPMI8226 multiple myeloma xenograft in female nude mice (TMU-RPMI8226-e0001); assay type: in vivo
Source text: The 42-day study utilized five groups of mice (n=6) bearing established human PRMI8226 multiple myeloma with mean volumes of ˜85 mm^3 on D1. […] (FIG. 3).

[2] = test system: human MDA-MB-231 breast adenocarcinoma; assay: Human MDA-MB-231 breast cancer xenograft in female nude mice (TMU-MDA-MB-231-e0002)
[3] = test system: IL-6 production in human rheumatoid arthritis fibroblast-like synoviocyte cells; assay: IL-6 production in RAFLS cells (ELISA); assay type: cell-based; conditions: RA-FLS, 24 h
Procedure: Cell culture. Human rheumatoid arthritis fibroblast-like synoviocytes (RAFLS) from Cell Application Inc. (San Diego, CA, USA) were grown in synoviocyte growth medium from the same supplier.
IL-6 Determination. RA-FLS (2.5×10^4) was treated with various concentrations of MPT0L056 for 24 h, then the medium was collected and assayed for IL-6 using commercial ELISA kit.

[4] = test system: MOLT4; assay: Growth inhibition assay; assay type: cell-based; conditions: Homo sapiens, MOLT-4; MOLT4 (Leukemia), 48 hours
Procedure: (§1) Cells were seeded in 96-well plastic plates and exposed to MPT0L056 for 48 hours. Cell viability was assessed using the 3-(4,5-dimethylthiazol-2-yl)-2,5-diphenyltetrazolium bromide assay. Growth inhibition was expressed as the percentage of surviving cells in drug-treated versus DMSO-treated control cells.

[5] = test system: Ramos; assay: Growth inhibition assay; assay type: cell-based; conditions: Homo sapiens; Ramos (B cell leukemia), 48 hours
Procedure: as §1

[6] = test system: KATO III; assay: Growth inhibition assay; assay type: cell-based; conditions: Homo sapiens; KATO III (Stomach cancer), 48 hours
Procedure: as §1

[7] = test system: U-87 MG; assay: Growth inhibition assay; assay type: cell-based; conditions: Homo sapiens; U-87 MG (Brain cancer), 48 hours
Procedure: as §1

[8] = test system: BxPC3; assay: Growth inhibition assay; assay type: cell-based; conditions: Homo sapiens, BXPC-3; BxPC3 (Pancreas cancer), 48 hours
Procedure: as §1

[9] = test system: MCF-7; assay: Growth inhibition assay; assay type: cell-based; conditions: Homo sapiens, MCF7; MCF-7 (Breast cancer), 48 hours
Procedure: as §1

[10] = test system: H33HJ-JA1; assay: Growth inhibition assay; assay type: cell-based; conditions: H33HJ-JA1 (T cell lymphoma), 48 hours
Procedure: as §1

[11] = test system: NCI-H460; assay: Growth inhibition assay; assay type: cell-based; conditions: Homo sapiens; NCI-H460 (Lung cancer), 48 hours
Procedure: as §1

[12] = test system: ACHN; assay: Growth inhibition assay; assay type: cell-based; conditions: Homo sapiens; ACHN (Kidney cancer), 48 hours
Procedure: as §1

[13] = test system: AsPC1; assay: Growth inhibition assay; assay type: cell-based; conditions: Homo sapiens; AsPC1 (Pancreas cancer), 48 hours
Procedure: as §1

[14] = test system: A431; assay: Growth inhibition assay; assay type: cell-based; conditions: Homo sapiens, A-431; A431 (Skin cancer), 48 hours
Procedure: as §1

[15] = test system: HepG2; assay: Growth inhibition assay; assay type: cell-based; conditions: Homo sapiens; HepG2 (Liver cancer), 48 hours
Procedure: as §1

[16] = test system: REH; assay: Growth inhibition assay; assay type: cell-based; conditions: Homo sapiens; REH (B cell leukemia), 48 hours
Procedure: as §1

[17] = test system: A549; assay: Growth inhibition assay; assay type: cell-based; conditions: Homo sapiens; A549 (Lung cancer), 48 hours
Procedure: as §1

[18] = test system: A-498; assay: Growth inhibition assay; assay type: cell-based; conditions: Homo sapiens, A498; A-498 (Kidney cancer), 48 hours
Procedure: as §1

[19] = test system: SK-MEL-5; assay: Growth inhibition assay; assay type: cell-based; conditions: Homo sapiens; SK-MEL-5 (Melanoma), 48 hours
Procedure: as §1

[20] = test system: HT-29; assay: Growth inhibition assay; assay type: cell-based; conditions: Homo sapiens; HT-29 (Colorectal cancer), 48 hours
Procedure: as §1

[21] = test system: HUVECs; assay: Growth inhibition assay; assay type: cell-based; conditions: Homo sapiens, HUVEC; HUVECs (Normal cells), 48 hours
Procedure: as §1

[22] = test system: OVCAR4; assay: Growth inhibition assay; assay type: cell-based; conditions: Homo sapiens, OVCAR-4; OVCAR4 (Ovarian cancer), 48 hours
Procedure: as §1

[23] = test system: PC-3; assay: Growth inhibition assay; assay type: cell-based; conditions: Homo sapiens; PC-3 (Prostate cancer), 48 hours
Procedure: as §1

[24] = test system: T98; assay: Growth inhibition assay; assay type: cell-based; conditions: Homo sapiens; T98 (Brain cancer), 48 hours
Procedure: as §1

[25] = test system: K562; assay: Growth inhibition assay; assay type: cell-based; conditions: Homo sapiens; K562 (Leukemia), 48 hours
Procedure: as §1

[26] = test system: OVCAR3; assay: Growth inhibition assay; assay type: cell-based; conditions: Homo sapiens, OVCAR-3; OVCAR3 (Ovarian cancer), 48 hours
Procedure: as §1

[27] = test system: PC-6; assay: Growth inhibition assay; assay type: cell-based; conditions: Homo sapiens; PC-6 (Lung cancer), 48 hours
Procedure: as §1

[28] = test system: Hepatocytes; assay: Growth inhibition assay; assay type: cell-based; conditions: Hepatocyte; Hepatocytes (Normal cells), 48 hours
Procedure: as §1

[29] = test system: ZR-75; assay: Growth inhibition assay; assay type: cell-based; conditions: ZR75; ZR-75 (Breast cancer), 48 hours
Procedure: as §1

[30] = test system: NHDF; assay: Growth inhibition assay; assay type: cell-based; conditions: Homo sapiens; NHDF (Normal cells), 48 hours
Procedure: as §1

[31] = MPT0L056 25 mg/kg p.o. once every day for 42 days
[32] = MPT0L056 50 mg/kg p.o. once every day for 42 days

O=C(Nc1ccncc1)c1ccc(CNC2=C(Cl)C(=O)c3ccccc3C2=O)cc1 [MPT0L056]
antitumor activity [1, 31]: produced significant antitumor activity
mice with complete regression (CR) [1, 31]: Two of six
antitumor activity [1, 32]: produced significant antitumor activity
mice with complete regression (CR) [1, 32]: Two of six
body weight change ([1]; MPT0L056 50 and 25 mg/kg, all doses tested, FIG. 4): without significantly body weight loss
tumor growth delay ([2]; MPT0L056 25 mg/kg p.o. once every day for ten days): did not significantly express tumor growth delay
antitumor activity ([2]; MPT0L056 50 mg/kg p.o. once every day for ten days): produced significant antitumor activity
antitumor activity ([2]; MPT0L056 100 mg/kg p.o. once every day for ten days): produced significant antitumor activity
body weight change ([2]; MPT0L056 100, 50 and 25 mg/kg, FIG. 6): did not significantly affect the animal body weight
IC50 [3]: 7260 nM
GI50 [4]: 4000 nM
GI50 [5]: 890 nM
GI50 [6]: 2400 nM
GI50 [7]: 2500 nM
GI50 [8]: 1200 nM
GI50 [9]: 900 nM
GI50 [10]: 1800 nM
GI50 [11]: 2900 nM
GI50 [12]: 2700 nM
GI50 [13]: 4600 nM
GI50 [14]: 1200 nM
GI50 [15]: 3600 nM
GI50 [16]: 2800 nM
GI50 [17]: > 5000 nM
GI50 [18]: 3500 nM
GI50 [19]: 210 nM
GI50 [20]: 3800 nM
GI50 [21]: 16000 nM
GI50 [22]: 1400 nM
GI50 [23]: 2500 nM
GI50 [24]: 5700 nM
GI50 [25]: 1700 nM
GI50 [26]: 1900 nM
GI50 [27]: 1800 nM
GI50 [28]: 30000 nM
GI50 [29]: > 5000 nM
GI50 [30]: 6300 nM
